Test results taken from paper PMC7508162 (Frontiers in Pharmacology, 2020).

Legend:
human CD38 = target: T1, human CD38 (Homo sapiens, UniProt P28907); test: CD38 assay; type: biochemical; conditions: analogous to NPP3 and NPP5 assays; for Ki: read-out: Ki ± SEM
T1 construct: the catalytic domains of the enzymes were amplified and sub-cloned into the expression vector pACGP67 A/B; 9xHis (C); made in house; host or cells: Sf9 insect cells (baculovirus, pACGP67 A/B)
T1 sequence (P28907 43-300 limits assumed): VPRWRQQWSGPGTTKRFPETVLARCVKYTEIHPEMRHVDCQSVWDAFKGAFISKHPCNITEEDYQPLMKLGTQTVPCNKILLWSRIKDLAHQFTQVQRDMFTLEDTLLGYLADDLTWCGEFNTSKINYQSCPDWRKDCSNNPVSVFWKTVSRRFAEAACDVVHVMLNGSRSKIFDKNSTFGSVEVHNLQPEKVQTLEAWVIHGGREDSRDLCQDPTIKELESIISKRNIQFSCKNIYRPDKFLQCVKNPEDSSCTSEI
Excerpt: (§1) The cDNAs of the human enzymes NPP1, NPP3, NPP5, CD38 and CD73 (Genbank accession no. NM_006258, NM_005021, NM_021572, NM_ 001775, and NM_002526, respectively) were obtained from Origene (Rockville, USA). Soluble enzymes were produced as previously reported with some modifications ([Lee et al., 2015]; [Junker et al., 2019]). Briefly, the catalytic domains of the enzymes were amplified and sub-cloned into the expression vector pACGP67 A/B modified with the addition of 9 x histidine tag (His-tag) at the C-terminus (except for NPP1). The plasmids were transfected in Sf9 insect cells using Cellfectin™ II Reagent (Thermo Fisher Scientific, MA, USA) and ProEasy™ baculovirus linearized DNA (Cat.#A10S, AB Vector, LLC). Protein expression was conducted for 48 h at 27°C. The signal peptide sequence of the expression vector shuttled the proteins into the supernatant. The supernatant medium was collected, and the enzymes were purified using HisPur™ Ni^2+-NTA spin columns according to the manufacturer’s protocol. The protein concentration was determined by the method previously described by [Lowry et al. (1951)].
The assay operation was analogous to the NPP3 and NPP5 assays. The enzymatic reactions were performed in 10 mM HEPES reaction buffer (pH 7.2) using 8 ng of human CD38 (expressed in Sf9 insect cells) in analogy to a published procedure ([Blacher et al., 2015]).

NPP1 = target: T2, NPP1 (Homo sapiens, UniProt P22413); test: NPP1 assay with p-Nph-5'-TMP as substrate; type: biochemical; conditions: soluble NPP1; 400 µM p-Nph-5'-TMP; read-out: Ki ± SEM
T2 construct: the catalytic domains of the enzymes were amplified and sub-cloned into the expression vector pACGP67 A/B; made in house; host or cells: Sf9 insect cells
T2 sequence (P22413 98-925 limits assumed): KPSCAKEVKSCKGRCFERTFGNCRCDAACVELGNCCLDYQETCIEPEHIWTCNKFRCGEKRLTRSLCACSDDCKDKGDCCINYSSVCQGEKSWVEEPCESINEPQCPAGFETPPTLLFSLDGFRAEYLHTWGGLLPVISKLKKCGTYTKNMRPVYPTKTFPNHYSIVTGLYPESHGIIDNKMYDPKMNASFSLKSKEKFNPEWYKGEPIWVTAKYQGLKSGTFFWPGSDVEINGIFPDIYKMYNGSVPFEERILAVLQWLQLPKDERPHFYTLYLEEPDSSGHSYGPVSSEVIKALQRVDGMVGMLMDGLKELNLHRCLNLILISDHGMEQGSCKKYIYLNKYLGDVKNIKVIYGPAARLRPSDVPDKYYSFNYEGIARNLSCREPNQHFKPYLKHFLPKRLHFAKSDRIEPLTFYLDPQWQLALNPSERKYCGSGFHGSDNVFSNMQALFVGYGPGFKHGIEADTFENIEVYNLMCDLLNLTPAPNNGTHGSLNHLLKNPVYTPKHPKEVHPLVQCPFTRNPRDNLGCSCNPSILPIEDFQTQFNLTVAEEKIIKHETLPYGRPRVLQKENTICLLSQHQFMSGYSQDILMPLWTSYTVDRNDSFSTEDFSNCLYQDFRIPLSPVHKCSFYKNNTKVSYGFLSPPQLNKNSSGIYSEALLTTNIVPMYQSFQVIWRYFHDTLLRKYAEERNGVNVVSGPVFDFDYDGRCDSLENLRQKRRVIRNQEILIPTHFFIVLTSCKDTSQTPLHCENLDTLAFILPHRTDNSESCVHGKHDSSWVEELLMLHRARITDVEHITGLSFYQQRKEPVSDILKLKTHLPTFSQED
Excerpt: as §1
Inhibition of NPP1 was determined as previously described ([Lee et al., 2017b]). p-Nitrophenyl-5’-thymidine monophosphate (p-Nph-5’-TMP) was used as an artificial substrate which results in the formation of the p-nitrophenolate anion with an absorption maximum of 400 nm. Purified soluble NPP1 [0.36 µg, expressed in Sf9 insect cells as previously described ([Lee et al., 2015])] was mixed with test compound (20 µM final concentration for initial screening, 0.1–200 µM for determining concentration-dependent inhibition curves), 2% DMSO and 400 µM of p-Nph-5’-TMP as a substrate in a final volume of 100 µl. The mixture was incubated for 30 min at 37°C with gentle shaking, and the enzyme reaction was terminated by the addition of 20 µl of 1 M NaOH. The absorption was measured at 405 nm using a BMG PheraStar FS plate reader (BMG Labtech GmbH, Ortenberg, Germany).

| Structure (SMILES) | % inhibition (human CD38) | Ki (human CD38) | Ki (NPP1) |
| --- | --- | --- | --- |
| CCN(CC)c1ncnc2c1ncn2[C@@H]1O[C@H](COP(=O)(O)OP(=O)(O)C(Br)(Br)P(=O)(O)O)[C@@H](O)[C@H]1O [ARL67156, (Dibromo((((((2R,3S,4R,5R)-5-(6-(diethylamino)-9H-purin-9-yl)-3,4-dihydroxytetrahydrofuran-2-yl)methoxy)-(hydroxy)-phosphoryl)oxy)(hydroxy)phosphoryl)methyl)-phosphonic Acid, reference compound] | 0% | > 10 µM | 4.41 ± 3.53 µM |
| CCCCSc1nc2c(N)ncnc2n1[C@@H]1O[C@H](COP(=O)(O)OP(=O)(O)C(Br)(Br)P(=O)(O)O)[C@@H](O)[C@H]1O [Compound 31, (((((((2R,3S,4R,5R)-5-(6-Amino-8-(butylthio)-9H-purin-9-yl)-3,4-dihydroxytetrahydrofuran-2-yl)methoxy)(hydroxy)-phosphoryl)oxy)(hydroxy)phosphoryl)dibromomethyl)-phosphonic Acid] | 7% | > 10 µM | 5.17 ± 1.75 µM |
| CCCCNc1nc2c(NC)ncnc2n1[C@@H]1O[C@H](COP(=O)(O)OP(=O)(O)C(Br)(Br)P(=O)(O)O)[C@@H](O)[C@H]1O [Compound 33, (Dibromo((((((2R,3S,4R,5R)-5-(8-(butylamino)-6-(methylamino)-9H-purin-9-yl)-3,4-dihydroxy-tetrahydrofuran-2-yl)methoxy)(hydroxy)phosphoryl)oxy)-(hydroxy)phosphoryl)methyl)-phosphonic Acid] | 6% | > 10 µM | 7.68 ± 5.4 µM |
